# Where two headings read alike, the source gives them in different places.
# Legend:
# [1] = Rabbit, average of n = 6; 0.5% 50 μL, 250 μg; cited from earlier work
# [2] = Retinal delivery of rifampicin in rat after topical 0.25% eye drops; type: in vivo, Sprague-Dawley rats
# Protocol: A single drop contained 5 μL of the above-described formulation, and the application of each drug drop was carried out at intervals of 30 min. After the eye drop application, euthanasia was performed using CO2 gas, and the retina was excised from each rat under a dissection microscope. In addition, “non-treated” negative controls were used, and the retina was excised from two rats without performing any treatments on the rats. The retina was placed in a 1.5 mL microcentrifuge tube (1 retina/tube) and was fully washed with DPBS. After completion of the washing procedures, the retinal tissues in the microcentrifuge tube were frozen in dry ice and then preserved for quantification by LC/MS analysis.
# [3] = Rat retina pharmacokinetics, single topical 0.25% rifampicin eye drop; type: in vivo, Sprague–Dawley rats; conditions: male, Sprague-Dawley, topical or ocular, 15 μL of 0.25% rifampicin eye drop
# Protocol: At time points of 1 h, 3 h, and 7 h after the application of the eye drops, euthanasia was performed using CO2 gas, and the retinal tissues were excised from the rats under a dissection microscope. In addition, “non-treated” negative controls were used, and the retina was excised from one rat without performing any treatments on the rat. The retina was placed in a 1.5-mL microcentrifuge tube (1 retina/tube) and was fully washed with DPBS. After completion of the washing procedures, the retinal tissues in the microcentrifuge tube were frozen in dry ice and then preserved for quantification by LC/MS analysis.
# [4] = tested on: oxygen-induced retinopathy rat models; test: Oxygen-induced retinopathy rat model, capillary count in histology sections; type: in vivo, Sprague–Dawley rat; conditions: SC injection 20 mg/kg once a day P15–P19, histology P20
# Text: Oxygen-induced retinopathy rat models were produced according to the protocols of Yanni et al. (2010). Sprague–Dawley rat babies (and their nursing mothers) were exposed to a cycling oxygen environment (80% and 21%, about one day for each) for 15 days after starting from the day of birth (Day 0). On Day 15 (P15), the animals were moved to room air. […] On P20, all of the animals were euthanized by CO2 gas, and the retina was visualized as histology sections.
# [5] = Mouse sub-retina/sclera complex pharmacokinetics after SC injection; type: in vivo, C57BL/6J mice; conditions: single SC injection 0.7 mg/kg
# Protocol: This effective dosage and administration route was evaluated in dose escalation studies by using the mouse laser-induced CNV model. The AUC reflects the exposure to the drug after administration of a dose of the drug and is expressed in hour · ng/mg tissue. The AUC is dependent on the dose administered as well as the rate of elimination of the drug from the tissue. The AUC is directly proportional to the dose when the drug follows linear kinetics, and AUC is inversely proportional to the clearance of the drug. In 1 h, 3 h, 6 h, and 18 h after the SC injection, eyeballs were extracted. Tissue from the retina, the sclera, and the sub-retina complex were isolated and extracted. These tissues were immediately frozen in liquid nitrogen. The tissue was subjected to LC/MS analysis for quantitation. The detection limit was 0.25 ng/g tissue.
# [6] = Non-GLP tox studies in rabbits, topical application; type: in vivo; conditions: twice daily topical application of 1% rifampicin, 3-month dosing (Unpublished data)
# [7] = Human peak plasma exposure (package insert); type: in vivo; conditions: 600 mg intravenous dose, calculated from package insert values
# [8] = design: method as in WO 2023/234423 A1; conditions: mouse, SC; ref WO 2023/234423 A1; cited from earlier work
# HUVEC = conditions: in vitro; cited from earlier work
# [9] = design: method as in earlier work; conditions: cited from earlier work
# [10] = design: method as in PMID 17995946; conditions: typical six-month course for tuberculosis; cited from earlier work
# [11] = tested on: patients with Central Serous Chorioretinopathy (CSC); conditions: cited from earlier work
# [12] = tested on: mouse laser-induced CNV model; test: Mouse laser-induced CNV model
Structure (SMILES),Drug Amount Detected in Retina [1],"Drug Amount Detected in Retina ([2]; topical 0.25% 3 drops (15 μL, 37.5 μg))","Drug Amount Detected in Retina ([2]; topical 0.25% 10 drops (50 μL, 125 μg))",Tmax [3] [h],Number of new capillaries on the retinal surface vs vehicle control [4],Peak concentration in mouse sub-retinal and scleral complex [5],"Peak concentration in mouse sub-retinal and scleral complex, calculated molar [5]",Toxicity on repeated topical application [6],Estimated serum concentration corresponding to peak plasma exposure [7] [µM],Share of rifampicin in sub-retina and sclera complex delivered to the sub-retina [8],Concentration required for statistically significant inhibition of HUVEC tube formation and proliferation (HUVEC),Peak plasma exposure ([9]; 600 mg intravenous dose) [µg/mL],Peak plasma exposure ([9]; 600 mg oral dose) [µg/mL],Patients with hepatotoxicity [10],Effect on CSC ([11]; 600 mg daily oral dose),Effect on visual acuity and macular thickness in CSC ([11]; daily oral dosage of 300 mg),"Inhibition of neovascularization in CNV model ([12]; SC injection 0.7 mg/kg once daily, 7 days after laser)",Neovascularization inhibition level compared with intravitreal aflibercept ([12]; SC injections at doses exceeding 0.7 mg/kg),"Minimum effective dose for inhibiting neovascularization in subretinal tissues ([12]; SC, dose escalation studies) [mg/kg]","Effective dosage in CNV model, times less than that of bacterial inhibition ([12]; vs 20 mg/kg effective systemic dosage for bacterial infection)"
C[C@@H]1C[C@H]2[C@@H]3CCC4=CC(=O)C=C[C@]4(C)[C@@]3(F)[C@@H](O)C[C@]2(C)[C@@]1(O)C(=O)CO [Dexamethasone],"33 ng/ 1 g of retinal tissues (Rabbit, average of n = 6)",,,,,,,,,,,,,,,,,,,
CO[C@H]1/C=C/O[C@@]2(C)Oc3c(C)c(O)c4c(O)c(c(/C=N/N5CCN(C)CC5)c(O)c4c3C2=O)NC(=O)/C(C)=C\C=C\[C@H](C)[C@H](O)[C@@H](C)[C@@H](O)[C@@H](C)[C@H](OC(C)=O)[C@@H]1C [Rifampicin],,1280 ng/ 1 g of retinal tissues (Rat) SE: 394.0348,2939 ng/ 1 g of retinal tissues (Rat) SE: 50.54,~1,fewer than that in the control group,approximately 0.03 ng/mg tissue weight,roughly 0.04 µM,no toxicity,12 to 23,approximately 70%,approximately 30 µM,9 to 17,4 to 32,up to 28%,improvements in CSC,improved visual acuity and macular thickness,significantly inhibited neovascularization,equivalent to that achieved with intravitreal injection of aflibercept,0.7,approximately 30 times

# Source: article PMC12115180 (Pharmaceuticals, 2025)
